Measurements: US5854002A (Rhone Poulenc, Inc., priority 1996, dated 1998)
Like-named read-outs stand apart in the source and are kept apart here.

Assays:
[1] = molecular target: T1, Drosophila Rdl (Drosophila melanogaster, UniProt P25123); test: [3H] muscimol radioligand binding assay, membranes of High Five cells infected with vBP8-Rdl
T1 construct: excised the full-length cDNA encoding Rdl; made in house; host or cells: High Five (Trichoplusia ni) cells, baculovirus vBP8-Rdl
T1 sequence (P25123 45-606): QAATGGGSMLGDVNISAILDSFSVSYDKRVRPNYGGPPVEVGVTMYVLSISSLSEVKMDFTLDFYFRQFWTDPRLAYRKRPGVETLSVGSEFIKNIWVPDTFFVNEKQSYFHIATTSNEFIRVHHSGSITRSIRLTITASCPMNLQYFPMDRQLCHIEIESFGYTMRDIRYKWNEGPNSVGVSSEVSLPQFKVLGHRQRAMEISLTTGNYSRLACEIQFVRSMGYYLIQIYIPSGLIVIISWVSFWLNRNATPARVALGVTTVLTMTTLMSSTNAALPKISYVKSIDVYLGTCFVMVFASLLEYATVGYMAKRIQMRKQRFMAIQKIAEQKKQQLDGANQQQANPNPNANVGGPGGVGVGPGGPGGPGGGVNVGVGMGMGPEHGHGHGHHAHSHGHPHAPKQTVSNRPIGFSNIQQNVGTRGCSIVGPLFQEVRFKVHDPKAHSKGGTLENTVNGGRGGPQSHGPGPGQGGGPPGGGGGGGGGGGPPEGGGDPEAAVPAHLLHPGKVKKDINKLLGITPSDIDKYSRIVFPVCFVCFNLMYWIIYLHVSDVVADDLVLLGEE
Experimental: (§1) High Five™ cells (derived from the cabbage loper, Trichoplusia ni, Invitrogen Corp.) were infected with vBP8-Rdl, vBP8-LCCH3, or vBP8-Grd, either singly or in various combinations. Cells were harvested at 3 days post-infection in tubes of approximately 6×10^7 cells per tube, the cells were pelleted by centrifugation, the supernatants discarded, and the pellets immediately stored at -80° C. This amount of tissue is sufficient for one 96-well microtiter plate. Membranes were prepared by first thawing and then resuspending the cell pellet in 25 mL of 10 mM phosphate buffer pH 7.4. The cells were gently homogenized with five strokes in a glass/Teflon homogenizer and the membranes pelleted by centrifugation at 120,000 g for 30 minutes. The membrane pellet was resuspended in 25 mL of 10 mM phosphate buffer pH 7.4, re-pelleted as above, and the pellet finally resuspended in 3 mL of buffer. The protein concentration was determined by the Bradford method (Bradford (1976) Anal. Biochem. 79:248) and then adjusted to 625 μg of protein per mL of 10 mM PBS, pH 7.4.
(§2) The reactions were incubated for 90 minutes at 4° C., and then terminated by filtration through Whatman GF/B glass fiber filters. Filters were washed with two 5 mL aliquots of cold buffer, and the radioactivity remaining on the filters was determined by liquid scintillation. Multiple assays were performed to test numerous compounds.

[2] = molecular target: T2, Drosophila Grd and LCCH3 (Drosophila melanogaster, UniProt Q08832+Q24352); test: [3H] muscimol radioligand binding assay, membranes of High Five cells co-infected with vBP8-Grd/vBP8-LCCH3
T2 construct: made in house; host or cells: High Five (Trichoplusia ni) cells, co-infected with vBP8-Grd and vBP8-LCCH3
T2 sequence (Q24352 59-686): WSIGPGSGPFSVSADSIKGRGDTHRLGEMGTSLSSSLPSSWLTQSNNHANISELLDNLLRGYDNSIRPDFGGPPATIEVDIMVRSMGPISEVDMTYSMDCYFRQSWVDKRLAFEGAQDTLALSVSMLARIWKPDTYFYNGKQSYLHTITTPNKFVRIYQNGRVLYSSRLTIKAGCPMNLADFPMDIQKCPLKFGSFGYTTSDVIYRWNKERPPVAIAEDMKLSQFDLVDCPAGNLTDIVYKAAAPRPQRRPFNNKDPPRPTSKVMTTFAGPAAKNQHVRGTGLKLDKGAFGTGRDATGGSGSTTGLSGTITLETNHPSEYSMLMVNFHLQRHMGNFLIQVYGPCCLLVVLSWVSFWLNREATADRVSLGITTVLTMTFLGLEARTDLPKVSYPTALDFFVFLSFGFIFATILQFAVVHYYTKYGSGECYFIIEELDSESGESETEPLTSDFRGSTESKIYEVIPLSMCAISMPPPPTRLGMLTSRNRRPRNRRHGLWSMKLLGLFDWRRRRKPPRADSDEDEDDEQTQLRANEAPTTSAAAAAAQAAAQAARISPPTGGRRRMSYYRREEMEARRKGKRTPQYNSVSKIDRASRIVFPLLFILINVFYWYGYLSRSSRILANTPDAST
T2 sequence (Q08832 21-496): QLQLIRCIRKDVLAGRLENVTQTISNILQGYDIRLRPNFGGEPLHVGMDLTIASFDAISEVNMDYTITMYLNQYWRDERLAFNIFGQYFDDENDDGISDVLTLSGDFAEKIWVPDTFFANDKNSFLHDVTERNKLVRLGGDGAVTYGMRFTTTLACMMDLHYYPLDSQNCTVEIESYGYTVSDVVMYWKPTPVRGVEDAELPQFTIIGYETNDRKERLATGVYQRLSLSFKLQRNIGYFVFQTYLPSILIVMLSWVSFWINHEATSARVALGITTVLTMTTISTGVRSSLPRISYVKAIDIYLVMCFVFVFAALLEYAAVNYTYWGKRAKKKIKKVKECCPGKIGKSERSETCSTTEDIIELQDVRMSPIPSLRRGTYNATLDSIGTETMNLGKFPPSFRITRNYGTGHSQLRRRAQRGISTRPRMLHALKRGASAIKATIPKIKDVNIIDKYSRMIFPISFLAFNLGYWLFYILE
Experimental: as §1
The radioligand binding assays were composed of 200 μL membrane preparation (containing 125 μg protein), 100 μL of [^3 H] muscimol (to give a final concentration of 5 nM), 20 μL of unlabeled test compound, buffer or unlabeled muscimol, and 680 μL of 10 mM PBS, pH 7.4. […] The reactions were incubated for 90 minutes at 4° C., and then terminated by filtration through Whatman GF/B glass fiber filters. Filters were washed with two 5 mL aliquots of cold buffer, and the radioactivity remaining on the filters was determined by liquid scintillation. Multiple assays were performed to test numerous compounds.

[3] = molecular target: Rat brain; test: [3H] muscimol binding, rat brain (previous assays of the inventors)
Source text: Data from fly heads and rat brains were obtained as described in Table 2.

[4] = molecular target: T3, Drosophila Grd (Drosophila melanogaster, UniProt Q24352); test: [3H] muscimol radioligand binding assay, membranes of High Five cells infected with vBP8-Grd; conditions: High Five cell membranes
T3 construct: made in house; host or cells: High Five (Trichoplusia ni) cells, baculovirus vBP8-Grd
T3 sequence (Q24352 59-686): T2 sequence (Q24352 59-686)
Experimental: as §1, with “The membrane pellet was resuspended in 25 mL of 10 mM phosphate buffer pH 7.4, re-pelleted as above, and the pellet finally resuspended in 3 mL of buffer.” left out
(§3) The radioligand binding assays were composed of 200 μL membrane preparation (containing 125 μg protein), 100 μL of [^3 H] muscimol (to give a final concentration of 5 nM), 20 μL of unlabeled test compound, buffer or unlabeled muscimol, and 680 μL of 10 mM PBS, pH 7.4. […] Filters were washed with two 5 mL aliquots of cold buffer, and the radioactivity remaining on the filters was determined by liquid scintillation. […]

[5] = molecular target: T4, Human α1 and rat β2 (UniProt P14867+P63138); test: [3H] muscimol radioligand binding assay, positive control receptor expressed in insect cells; conditions: [3H] muscimol 5 nM, insect cell membranes
T4 construct: made in house; host or cells: insect cells, baculoviruses vEV-humα1 and vEV-ratβ2

[6] = molecular target: T5, Drosophila Rdl, Grd and LCCH3 (Drosophila melanogaster, UniProt P25123+Q08832+Q24352); test: [3H] muscimol radioligand binding assay, membranes of High Five cells infected with vBP8-Grd/vBP8-LCCH3/vBP8-Rdl
T5 construct: excised the full-length cDNA encoding Rdl; made in house; host or cells: High Five (Trichoplusia ni) cells, co-infected with vBP8-Grd, vBP8-LCCH3 and vBP8-Rdl
T5 sequence (P25123 45-606): T1 sequence (P25123 45-606)
T5 sequence (Q24352 59-686): T2 sequence (Q24352 59-686)
T5 sequence (Q08832 21-496): T2 sequence (Q08832 21-496)
Experimental: as §1, §2

[7] = molecular target: T2, Drosophila Grd and LCCH3; test: [3H] muscimol radioligand binding assay, membranes of High Five cells co-infected with vBP8-Grd/vBP8-LCCH3; remark: listed apart in the source
[8] = molecular target: Housefly heads; conditions: from Lunt et al. (1985), cited from earlier work; for IC50: half-maximal displacement of [3H] muscimol, read-out: IC50, Fly Heads
[9] = molecular target: T6, Drosophila LCCH3 (Drosophila melanogaster, UniProt Q08832); test: [3H] muscimol radioligand binding assay, membranes of High Five cells infected with vBP8-LCCH3; conditions: High Five cell membranes
T6 construct: made in house; host or cells: High Five (Trichoplusia ni) cells, baculovirus vBP8-LCCH3
T6 sequence (Q08832 21-496): T2 sequence (Q08832 21-496)
Experimental: as §1, with “The membrane pellet was resuspended in 25 mL of 10 mM phosphate buffer pH 7.4, re-pelleted as above, and the pellet finally resuspended in 3 mL of buffer.” left out
as §3

[10] = tested on: insect cells infected with either vBP8-Grd, vBP8-LCCH3, or co-infected with vBP8-Grd and vBP8-LCCH3; test: Whole cell voltage clamp recordings of infected insect cells; assay type: cell-based, Drosophila; conditions: GABA applications of up to 1 mM, 30 to 36 hours post-infection, any of the three infected cell types
Experimental: Insect cells infected with either vBP8-Grd, vBP8-LCCH3, or co-infected with vBP8-Grd and vBP8-LCCH3 were analyzed for the expression and assembly of functional GABA-gated chloride channels. Whole cell voltage clamp recordings were made at between 30 and 36 hours post-infection. […] However, no specific [^3 H]EBOB binding was detected in cells infected with any combination of virus.

[11] = half-maximal displacement of [3H] muscimol, read-out: IC50, Rdl
[12] = half-maximal displacement of [3H] muscimol, read-out: IC50, Grd/LCCH3
[13] = half-maximal displacement of [3H] muscimol, previous assays by the inventors
[14] = [3H] muscimol 5 nM, non-specific = 10 μM GABA
[15] = [3H] muscimol saturation binding
[16] = [3H] muscimol 5 nM, High Five cell membranes, non-specific = 10 μM GABA
[17] = [3H] muscimol saturation binding, High Five cell membranes

T4 sequence (P14867 28-456): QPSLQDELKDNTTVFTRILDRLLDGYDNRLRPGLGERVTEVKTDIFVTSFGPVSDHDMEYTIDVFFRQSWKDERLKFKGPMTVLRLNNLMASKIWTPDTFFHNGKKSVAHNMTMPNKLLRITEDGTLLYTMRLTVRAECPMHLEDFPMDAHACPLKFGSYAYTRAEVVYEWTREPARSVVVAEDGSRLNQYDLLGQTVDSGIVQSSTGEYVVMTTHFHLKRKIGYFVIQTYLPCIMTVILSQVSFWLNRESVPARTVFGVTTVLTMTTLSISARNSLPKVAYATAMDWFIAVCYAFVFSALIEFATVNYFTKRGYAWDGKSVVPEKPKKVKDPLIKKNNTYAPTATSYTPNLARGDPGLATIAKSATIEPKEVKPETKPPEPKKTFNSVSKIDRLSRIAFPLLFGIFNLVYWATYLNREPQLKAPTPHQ
T4 sequence (P63138 25-474 limits assumed): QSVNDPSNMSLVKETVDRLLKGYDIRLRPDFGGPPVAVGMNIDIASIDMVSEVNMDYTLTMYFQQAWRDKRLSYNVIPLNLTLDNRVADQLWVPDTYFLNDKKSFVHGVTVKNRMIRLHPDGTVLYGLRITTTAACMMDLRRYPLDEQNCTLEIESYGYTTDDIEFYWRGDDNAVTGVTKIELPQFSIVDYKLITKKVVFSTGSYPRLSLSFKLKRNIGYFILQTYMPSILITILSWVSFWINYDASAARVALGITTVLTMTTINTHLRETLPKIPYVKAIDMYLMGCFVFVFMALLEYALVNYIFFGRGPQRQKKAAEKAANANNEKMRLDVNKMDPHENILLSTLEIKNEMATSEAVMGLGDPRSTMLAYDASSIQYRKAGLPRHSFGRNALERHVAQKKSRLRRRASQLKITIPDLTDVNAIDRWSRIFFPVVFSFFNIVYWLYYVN

O=C(O)C1CCNCC1 [Isonipecotic acid]
IC50 [1, 11]: 1.7 µM
IC50 [2, 12]: 2.68 µM
IC50 [3, 13]: 1.43 µM

NCc1cc(O)no1 [[^3 H] muscimol]
% Specific Binding [4, 14]: 10%
Kd [4, 15]: > 10 µM
% Specific Binding [5]: 80%
Bmax ([6]; High Five cell membranes): 0.64 pmol [3H] muscimol bound per m
% Specific Binding [6, 16]: 60%
Kd [6, 17]: 0.038 µM
maximum number of binding sites (Bmax) relative to vBP8-Rdl-infected cells ([7]; Grd/LCCH3 co-infected versus Rdl-infected cells): 15 fold
Bmax ([7]; High Five cell membranes): 1.85 pmol [3H] muscimol bound per m
Kd [7, 17]: 0.012 µM
Kd ([8]; housefly heads): 0.04 µM
Bmax ([1]; High Five cell membranes): 0.11 pmol [3H] muscimol bound per m
% Specific Binding [1, 16]: 55%
Kd [1, 17]: 0.012 µM
% Specific Binding [2, 16]: 85%
specific binding of [3H]muscimol ([2]; cells 3 days after co-infection with vBP8-Grd and vBP8-LCCH3): High levels of specific binding
% Specific Binding [9, 14]: 10%
Kd [9, 15]: > 10 µM
Kd ([3]; rat brain, previous assays by the inventors): 0.028 µM

CP(=O)(O)CCCN [SKF-97541]
IC50 [1]: > 1000 µM
IC50 [2]: > 1000 µM
IC50 [3, 13]: > 1000 µM

NCCCCC(=O)O [5-amino-valeric acid]
IC50 [1, 11]: 2.1 µM
IC50 [2, 12]: 0.749 µM
IC50 [3, 13]: > 1000 µM

COc1ccc2c(c1OC)C(=O)O[C@@H]2[C@H]1c2cc3c(cc2CCN1C)OCO3 [Hydrastine]
IC50 [1]: > 1000 µM
IC50 [2]: > 1000 µM
IC50 [3, 13]: 2.61 µM

CN1CCc2cc3c(cc2[C@H]1[C@@H]1OC(=O)c2c1ccc1c2OCO1)OCO3 [Bicuculline]
IC50 [1]: > 1000 µM
IC50 [2]: > 1000 µM
IC50 [3, 13]: 19 µM

NC/C=C\C(=O)O [cis-4-amino-crotonic acid]
IC50 [1, 11]: 2.91 µM
IC50 [2, 12]: 1.62 µM
IC50 [3, 13]: > 1000 µM

O=C(O)C1=CCNCC1 [Isoguavacine]
IC50 [8]: 0.1 µM
IC50 [1, 11]: 0.26 µM
IC50 [2, 12]: 0.19 µM
IC50 [3, 13]: 0.289 µM

NCc1cc(=O)[nH]o1 [Muscimol]
IC50 ([6]; half-maximal displacement of [3H] muscimol): 0.023 µM
IC50 [8]: 0.03 µM
IC50 [1, 11]: 0.012 µM
IC50 [2, 12]: 0.015 µM
IC50 [3, 13]: 0.043 µM

NCC(CC(=O)O)c1ccc(Cl)cc1 (stereo not shown) [Baclofen]
IC50 [1, 11]: > 1000 µM
IC50 [2, 12]: > 1000 µM
IC50 [3, 13]: > 1000 µM

NCCCC(=O)O [GABA, γ-aminobutyric acid]
Depolarization in whole cell voltage clamp [10]: Depolarization was not detected
IC50 [2, 12]: 0.038 µM

O=S(=O)(O)C1CCNCC1 [Piperidine-4-sulfonate]
IC50 [1, 11]: > 1000 µM
IC50 [2, 12]: > 1000 µM

COc1ccc(-c2ccc(=N)n(CCCC(=O)O)n2)cc1 [Gabazine]
IC50 [1, 11]: > 1000 µM
IC50 [2, 12]: > 1000 µM
IC50 [3]: 0.483 µM
